Experimental data from US20110195900A1, “PEPTIDIC PTH RECEPTOR AGONISTS” (FERRING B.V., priority 2008, published 2011).
Non-standard residues stand in square brackets, D forms with d. Residues, ends and D or L forms follow the SMILES beside them. 1Nal = N[C@@H](Cc1cccc2ccccc12)C(=O)O; β3hI = CC[C@H](C)[C@H](N)CC(=O)O; β3hF = N[C@H](CC(=O)O)Cc1ccccc1; hSer = N[C@@H](CCO)C(=O)O; Nle = CCCC[C@H](N)C(=O)O; Aib = CC(C)(N)C(=O)O

Biological target: T1, human PTH-1 receptor (Homo sapiens, UniProt Q03431)
T1 construct: expressed in transfected cells; host or cells: HEK-293
T1 sequence (Q03431 27-593): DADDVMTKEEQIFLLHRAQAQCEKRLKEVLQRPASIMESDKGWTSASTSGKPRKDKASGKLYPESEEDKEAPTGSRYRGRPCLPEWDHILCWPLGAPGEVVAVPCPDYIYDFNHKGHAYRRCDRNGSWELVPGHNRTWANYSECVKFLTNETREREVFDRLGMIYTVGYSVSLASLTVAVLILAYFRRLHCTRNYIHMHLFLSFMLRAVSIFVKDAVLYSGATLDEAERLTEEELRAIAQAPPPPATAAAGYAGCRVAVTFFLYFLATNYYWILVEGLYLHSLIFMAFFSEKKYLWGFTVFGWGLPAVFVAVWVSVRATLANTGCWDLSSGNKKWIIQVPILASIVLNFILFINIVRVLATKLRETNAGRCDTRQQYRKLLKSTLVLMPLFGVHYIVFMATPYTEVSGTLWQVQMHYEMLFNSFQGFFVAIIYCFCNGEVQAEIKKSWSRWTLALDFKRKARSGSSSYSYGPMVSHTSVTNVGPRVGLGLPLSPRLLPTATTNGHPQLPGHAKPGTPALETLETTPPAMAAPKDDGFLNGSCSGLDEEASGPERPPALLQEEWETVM
Assay: Reporter gene assay (CRE-luciferase) for agonist activity in transiently transfected HEK-293 cells
Type: cell-based
Conditions: for hPTHR-2/hPTHR-1: Table 3, ratio of EC50 values, selectivity for hPTH-1 receptor over hPTH-2 receptor
In short: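 Selectivity came from luciferase transcriptional reporter assays expressing human PTH-2 receptor. PTH-1 agonism used transiently transfected HEK-293 cells carrying SV40-promoter receptor and cAMP-responsive-element luciferase; 4-5 h compound exposure, lysis, luminescence, non-linear-regression EC50/efficacy; ≥3 independent runs, PTH (1-34) control each.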

| SMILES | EC50 [nM] | hPTHR-2/hPTHR-1 |
| --- | --- | --- |
| CCCC[C@H](NC(=O)[C@H](CC(C)C)NC(=O)[C@H](CCC(N)=O)NC(=O)[C@@H](NC(=O)[C@H](CCC(=O)O)NC(=O)[C@H](CO)NC(=O)[C@@H](NC(=O)[C@@H](N)CO)C(C)C)[C@@H](C)CC)C(=O)N[C@@H](Cc1c[nH]cn1)C(=O)N[C@@H](CC(N)=O)C(=O)N[C@@H](CC(C)C)C(=O)NCC(=O)NC(C)(C)C(=O)N[C@@H](Cc1c[nH]cn1)C(=O)N[C@@H](CC(C)C)C(=O)N[C@@H](CC(N)=O)C(=O)N[C@@H](CO)C(=O)N[C@H](CC(=O)N[C@@H](CCC(=O)O)C(=O)N[C@@H](CCCNC(=N)N)C(=O)N[C@H](C(=O)N[C@@H](CCC(=O)O)C(=O)N[C@@H](Cc1cccc2ccccc12)C(=O)N[C@@H](CC(C)C)C(=O)N[C@@H](CCCNC(=N)N)C(=O)N[C@@H](CCCCN)C(=O)N[C@@H](CC(C)C)C(=O)N[C@@H](CC(C)C)C(=O)N[C@@H](CCC(N)=O)C(=O)N[C@@H](CC(=O)O)C(=O)N[C@H](C(=O)N[C@@H](Cc1c[nH]cn1)C(=O)N[C@@H](CC(N)=O)C(=O)N[C@@H](Cc1ccccc1)C(N)=O)C(C)C)C(C)C)[C@@H](C)CC [SEQ ID NO: 33, [Nle^8, Aib^13, β-hIle^18,1-Nal^23, Leu^27] hPTH (1-34)-NH2] (H-SVSEIQL[Nle]HNLG[Aib]HLNS[β3hI]ERVE[1Nal]LRKLLQDVHNF-NH2) | 0.14 | 481 |
| CCCC[C@H](NC(=O)[C@H](CC(C)C)NC(=O)[C@H](CCC(N)=O)NC(=O)[C@@H](NC(=O)[C@H](CCC(=O)O)NC(=O)[C@H](CO)NC(=O)[C@@H](NC(=O)[C@@H](N)CO)C(C)C)[C@@H](C)CC)C(=O)N[C@@H](Cc1c[nH]cn1)C(=O)N[C@@H](CC(N)=O)C(=O)N[C@@H](CC(C)C)C(=O)NCC(=O)N[C@@H](CCCCN)C(=O)N[C@@H](Cc1c[nH]cn1)C(=O)N[C@@H](CC(C)C)C(=O)N[C@@H](CCCCN)C(=O)N[C@@H](CO)C(=O)N[C@H](CC(=O)N[C@@H](CCC(=O)O)C(=O)N[C@@H](CCCNC(=N)N)C(=O)N[C@H](C(=O)N[C@@H](CCC(=O)O)C(=O)N[C@@H](Cc1cccc2ccccc12)C(=O)N[C@@H](CC(C)C)C(=O)N[C@@H](CCCNC(=N)N)C(=O)N[C@@H](CCCCN)C(=O)N[C@@H](CC(C)C)C(=O)N[C@@H](CC(C)C)C(=O)N[C@@H](CCC(N)=O)C(=O)N[C@@H](CC(=O)O)C(=O)N[C@H](C(=O)N[C@@H](Cc1c[nH]cn1)C(=O)N[C@@H](CC(N)=O)C(=O)N[C@@H](Cc1ccccc1)C(N)=O)C(C)C)C(C)C)[C@@H](C)CC [SEQ ID NO: 34, [Nle^8, Lys^16, β-hIle^18,1-Nal^23, Leu^27] hPTH (1-34)-NH2] (H-SVSEIQL[Nle]HNLGKHLKS[β3hI]ERVE[1Nal]LRKLLQDVHNF-NH2; N-terminus assumed) | 0.08 | 373 |
| CCCC[C@H](NC(=O)[C@H](CC(C)C)NC(=O)[C@H](CCC(N)=O)NC(=O)[C@@H](NC(=O)[C@H](CCC(=O)O)NC(=O)[C@H](CO)NC(=O)[C@@H](NC(=O)[C@@H](N)CO)C(C)C)[C@@H](C)CC)C(=O)N[C@@H](Cc1c[nH]cn1)C(=O)N[C@@H](CO)C(=O)N[C@@H](CC(C)C)C(=O)NCC(=O)N[C@@H](CCCCN)C(=O)N[C@@H](Cc1c[nH]cn1)C(=O)N[C@@H](CC(C)C)C(=O)N[C@@H](CCCCN)C(=O)N[C@@H](CO)C(=O)N[C@H](CC(=O)N[C@@H](CCC(=O)O)C(=O)N[C@@H](CCCNC(=N)N)C(=O)N[C@H](C(=O)N[C@@H](CCC(=O)O)C(=O)N[C@@H](Cc1cccc2ccccc12)C(=O)N[C@@H](CC(C)C)C(=O)N[C@@H](CCCNC(=N)N)C(=O)N[C@@H](CCCCN)C(=O)N[C@@H](CC(C)C)C(=O)N[C@@H](CC(C)C)C(=O)N[C@@H](CCC(N)=O)C(=O)N[C@@H](CCCNC(=N)N)C(=O)N[C@H](C(=O)N[C@@H](Cc1c[nH]cn1)C(=O)N[C@@H](CCC(=O)O)C(=O)N[C@@H](Cc1ccccc1)C(N)=O)C(C)C)C(C)C)[C@@H](C)CC [SEQ ID NO: 40, [Nle^8, Ser^10, Lys^16, β-hIle^18,1-Nal^23, Leu^27, Arg^30, Glu^33] hPTH(1-34)-NH2] (H-SVSEIQL[Nle]HSLGKHLKS[β3hI]ERVE[1Nal]LRKLLQRVHEF-NH2) | 0.12 | 69 |
| CCCC[C@H](NC(=O)[C@H](CC(C)C)NC(=O)[C@H](CCC(N)=O)NC(=O)[C@@H](NC(=O)[C@H](CCC(=O)O)NC(=O)[C@H](CO)NC(=O)[C@@H](NC(=O)C(C)(C)N)C(C)C)[C@@H](C)CC)C(=O)N[C@@H](Cc1c[nH]cn1)C(=O)N[C@@H](CC(N)=O)C(=O)N[C@@H](CC(C)C)C(=O)NCC(=O)N[C@@H](CCCCN)C(=O)N[C@@H](Cc1c[nH]cn1)C(=O)N[C@@H](CC(C)C)C(=O)N[C@@H](CC(N)=O)C(=O)N[C@@H](CO)C(=O)N[C@H](CC(=O)N[C@@H](CCC(=O)O)C(=O)N[C@@H](CCCNC(=N)N)C(=O)N[C@H](C(=O)N[C@@H](CCC(=O)O)C(=O)N[C@@H](Cc1cccc2ccccc12)C(=O)N[C@@H](CC(C)C)C(=O)N[C@@H](CCCNC(=N)N)C(=O)N[C@@H](CCCCN)C(=O)N[C@@H](CC(C)C)C(=O)N[C@@H](CC(C)C)C(=O)N[C@@H](CCC(N)=O)C(=O)N[C@@H](CC(=O)O)C(=O)N[C@H](C(=O)N[C@@H](Cc1c[nH]cn1)C(=O)N[C@@H](CC(N)=O)C(=O)N[C@@H](Cc1ccccc1)C(N)=O)C(C)C)C(C)C)Cc1ccccc1 [SEQ ID NO: 42, [Aib^1, Nle^8, β-hPhe^18,1-Nal^23, Leu^27 hPTH (1-34)-NH2] (H-[Aib]VSEIQL[Nle]HNLGKHLNS[β3hF]ERVE[1Nal]LRKLLQDVHNF-NH2; N-terminus assumed) | 0.06 | 88 |
| CCCC[C@H](NC(=O)[C@H](CC(C)C)NC(=O)[C@H](CCC(N)=O)NC(=O)[C@@H](NC(=O)[C@H](CCC(=O)O)NC(=O)[C@H](CO)NC(=O)[C@@H](NC(=O)[C@@H](N)CO)C(C)C)[C@@H](C)CC)C(=O)N[C@@H](Cc1c[nH]cn1)C(=O)N[C@@H](CC(N)=O)C(=O)N[C@@H](CC(C)C)C(=O)NCC(=O)N[C@@H](CCCCN)C(=O)N[C@@H](Cc1c[nH]cn1)C(=O)N[C@@H](CC(C)C)C(=O)N[C@@H](CC(N)=O)C(=O)N[C@@H](CO)C(=O)N[C@H](CC(=O)N[C@@H](CCC(=O)O)C(=O)N[C@@H](CCCNC(=N)N)C(=O)N[C@H](C(=O)N[C@@H](CCC(=O)O)C(=O)N[C@@H](Cc1cccc2ccccc12)C(=O)N[C@@H](CC(C)C)C(=O)N[C@@H](CCCNC(=N)N)C(=O)N[C@@H](CCCCN)C(=O)N[C@@H](CC(C)C)C(=O)N[C@@H](CC(C)C)C(=O)N[C@@H](CCC(N)=O)C(=O)N[C@@H](CC(=O)O)C(=O)N[C@H](C(=O)N[C@@H](Cc1c[nH]cn1)C(=O)N[C@@H](CC(N)=O)C(=O)N[C@@H](Cc1ccccc1)C(N)=O)C(C)C)C(C)C)Cc1ccccc1 [SEQ ID NO: 46, [Nle^8, β-hPhe^18,1-Nal^23, Leu^27] hPTH (1-34)-NH2] (H-SVSEIQL[Nle]HNLGKHLNS[β3hF]ERVE[1Nal]LRKLLQDVHNF-NH2) | 0.11 | 94 |
| CCCC[C@H](NC(=O)[C@H](CC(C)C)NC(=O)[C@H](CCC(N)=O)NC(=O)[C@@H](NC(=O)[C@H](CCC(=O)O)NC(=O)[C@H](CO)NC(=O)[C@@H](NC(=O)C(C)(C)N)C(C)C)[C@@H](C)CC)C(=O)N[C@@H](Cc1c[nH]cn1)C(=O)N[C@@H](CC(N)=O)C(=O)N[C@@H](CC(C)C)C(=O)NCC(=O)N[C@@H](CCCCN)C(=O)N[C@@H](Cc1c[nH]cn1)C(=O)N[C@@H](CC(C)C)C(=O)N[C@@H](CC(N)=O)C(=O)N[C@H](CC(=O)N[C@@H](CCOC)C(=O)N[C@@H](CCC(=O)O)C(=O)N[C@@H](CCCNC(=N)N)C(=O)N[C@H](C(=O)N[C@@H](CCC(=O)O)C(=O)N[C@@H](Cc1cccc2ccccc12)C(=O)N[C@@H](CC(C)C)C(=O)N[C@@H](CCCNC(=N)N)C(=O)N[C@@H](CCCCN)C(=O)N[C@@H](CC(C)C)C(=O)N[C@@H](CC(C)C)C(=O)N[C@@H](CCC(N)=O)C(=O)N[C@@H](CC(=O)O)C(=O)N[C@H](C(=O)N[C@@H](Cc1c[nH]cn1)C(=O)N[C@@H](CC(N)=O)C(=O)N[C@@H](Cc1ccccc1)C(N)=O)C(C)C)C(C)C)Cc1ccccc1 [SEQ ID NO: 48, [Aib^1, Nle^8, β-hPhe^17, hSer(OMe)^18,1-Nal^23, Leu^27] hPTH-(1-34)-NH2] (H-[Aib]VSEIQL[Nle]HNLGKHLN[β3hF][hSer](Me)ERVE[1Nal]LRKLLQDVHNF-NH2) | 0.1 | 1152 |
